{"source": "paper PMC9637222", "about": "“Autoinducer-2 and bile salts induce c-di-GMP synthesis to repress the T3SS via a T3SS chaperone” (Nature Communications, 2022)", "key": {"SicA D28A": {"target": "T1, SicA D28A (Salmonella typhimurium, UniProt P69066, D28A)", "T1 construct": "His6 (N, cleaved yes); made in house; host or cells: E. coli BL21(DE3), pET-28a (pET28a-sicAD28A)", "T1 sequence (P69066 whole entry D28A)": "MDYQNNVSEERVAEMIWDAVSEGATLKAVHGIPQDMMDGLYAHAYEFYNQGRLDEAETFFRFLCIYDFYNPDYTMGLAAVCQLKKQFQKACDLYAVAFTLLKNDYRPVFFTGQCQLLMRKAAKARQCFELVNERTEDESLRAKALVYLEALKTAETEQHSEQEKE", "type": "binding, S. Typhimurium"}, "SicA N70A": {"target": "T2, SicA N70A (Salmonella typhimurium, UniProt P69066, N70A)", "T2 construct": "His6 (N, cleaved yes); made in house; host or cells: E. coli BL21(DE3), pET-28a (pET28a-sicAN70A)", "T2 sequence (P69066 whole entry N70A)": "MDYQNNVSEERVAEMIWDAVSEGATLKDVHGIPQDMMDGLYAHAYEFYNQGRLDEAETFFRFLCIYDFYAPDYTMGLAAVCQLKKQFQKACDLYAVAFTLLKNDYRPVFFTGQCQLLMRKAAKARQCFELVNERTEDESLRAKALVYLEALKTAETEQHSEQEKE", "type": "binding, S. Typhimurium"}, "IpgC (WP_000055835)": {"target": "T3, IpgC (WP_000055835) (Shigella flexneri, UniProt P0A2U4)", "T3 construct": "His6 (N, cleaved yes); made in house; host or cells: E. coli BL21(DE3), pET-28a (pET28a-ipgC)", "type": "binding, S. flexneri serotype 2a", "settings": "for Kd: ITC"}, "SicA Q34A": {"target": "T4, SicA Q34A (Salmonella typhimurium, UniProt P69066, Q34A)", "T4 construct": "His6 (N, cleaved yes); made in house; host or cells: E. coli BL21(DE3), pET-28a (pET28a-sicAQ34A)", "T4 sequence (P69066 whole entry Q34A)": "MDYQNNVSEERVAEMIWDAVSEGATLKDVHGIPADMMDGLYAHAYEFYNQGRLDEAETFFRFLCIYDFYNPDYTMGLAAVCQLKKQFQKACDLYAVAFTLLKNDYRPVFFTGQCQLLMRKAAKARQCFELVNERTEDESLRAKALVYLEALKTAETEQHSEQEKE", "type": "binding, S. Typhimurium"}, "InvF": {"target": "T5, InvF (Salmonella typhimurium, UniProt P69343)", "T5 sequence (P69343 1-216)": "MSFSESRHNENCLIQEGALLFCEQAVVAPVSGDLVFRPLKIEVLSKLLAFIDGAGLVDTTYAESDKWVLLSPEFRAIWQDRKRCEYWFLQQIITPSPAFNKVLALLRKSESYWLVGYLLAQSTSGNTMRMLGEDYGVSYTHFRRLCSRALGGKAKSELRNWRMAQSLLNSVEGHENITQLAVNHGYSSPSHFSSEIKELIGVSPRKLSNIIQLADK", "assay": "ITC: c-di-GMP binding to InvF", "parameters": "His6 (N, cleaved yes); made in house; host or cells: E. coli BL21(DE3), pET-28a (pET28a-invF); species or system S. Typhimurium"}, "[1]": {"test_system": "T6, T3SS ATPase InvC (STM2894)", "T6 construct": "His6 (N, cleaved yes); made in house; host or cells: E. coli BL21(DE3) (pET28a-invC)", "assay": "ITC: c-di-GMP binding to T3SS ATPase InvC", "settings": "T3SS ATPase from S. Typhimurium", "method": "(§1) Supplementary Fig. 25 Neither the T3SS ATPase InvC (STM2894) from S. Typhimurium nor the T3SS ATPase PA1697 from P. aeruginosa interacts with c-di-GMP\n(§2) The binding affinity was evaluated by ITC analysis. ITC data and plots of injected heat for automatic injections of 100 μM c-di-GMP into the sample cell containing 10 μM InvC (a) or PA1697 (b) are shown inthe upper and lower plots, respectively. […]\n(§3) the finalanalysis. Results shown are one representative of three experiments with similar results."}, "T3SS ATPase PA1697": {"test_system": "T3SS ATPase PA1697", "assay": "ITC: c-di-GMP binding to T3SS ATPase PA1697", "settings": "T3SS ATPase from P. aeruginosa", "method": "as §1, §2, §3"}, "VcrH (WP_005464462)": {"target": "T7, VcrH (WP_005464462) (Vibrio parahaemolyticus, UniProt Q87P60)", "T7 sequence (Q87P60 1-162)": "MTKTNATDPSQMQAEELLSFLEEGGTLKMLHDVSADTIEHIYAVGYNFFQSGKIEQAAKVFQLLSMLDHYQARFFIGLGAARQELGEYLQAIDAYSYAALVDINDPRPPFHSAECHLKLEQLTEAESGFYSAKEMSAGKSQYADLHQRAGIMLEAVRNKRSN", "type": "binding", "settings": "for Kd: ITC"}, "InvF-His6 / SicA-HA": {"test_system": "InvF-His6 / SicA-HA", "assay": "Co-IP of InvF-His6 with SicA-HA in presence of nucleotides", "settings": "nucleotide added to lysate"}, "SycD (WP_010891209)": {"target": "T8, SycD (WP_010891209) (Yersinia enterocolitica, UniProt O87496)", "T8 sequence (O87496 1-168)": "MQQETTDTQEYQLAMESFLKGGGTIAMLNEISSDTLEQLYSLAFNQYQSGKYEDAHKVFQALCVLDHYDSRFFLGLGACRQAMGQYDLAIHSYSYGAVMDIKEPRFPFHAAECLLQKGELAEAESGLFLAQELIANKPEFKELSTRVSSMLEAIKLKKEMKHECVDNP", "type": "binding", "settings": "for Kd: ITC"}, "SipB-His6 / SicA-HA": {"test_system": "SipB-His6 / SicA-HA", "assay": "Co-IP of SipB-His6 with SicA-HA in presence of c-di-GMP", "settings": "dose-dependent"}, "SicA D67A": {"target": "T9, SicA D67A (Salmonella typhimurium, UniProt P69066, D67A)", "T9 construct": "His6 (N, cleaved yes); made in house; host or cells: E. coli BL21(DE3), pET-28a (pET28a-sicAD67A)", "T9 sequence (P69066 whole entry D67A)": "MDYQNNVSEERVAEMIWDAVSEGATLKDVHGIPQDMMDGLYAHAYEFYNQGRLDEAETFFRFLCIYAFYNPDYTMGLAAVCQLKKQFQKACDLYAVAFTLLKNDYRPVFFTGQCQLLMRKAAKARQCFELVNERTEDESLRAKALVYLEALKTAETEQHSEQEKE", "type": "binding, S. Typhimurium"}, "CesD (WP_000379288)": {"target": "T10, CesD (WP_000379288) (Escherichia coli O157:H7, UniProt Q8X6H6)", "T10 sequence (Q8X6H6 1-163)": "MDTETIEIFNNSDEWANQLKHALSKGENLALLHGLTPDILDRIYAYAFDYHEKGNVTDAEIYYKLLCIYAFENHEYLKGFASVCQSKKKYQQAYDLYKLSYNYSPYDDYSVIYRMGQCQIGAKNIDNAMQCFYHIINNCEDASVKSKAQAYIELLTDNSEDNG", "type": "binding, EHEC O157:H7", "settings": "for Kd: ITC"}, "PcrH (WP_003113548)": {"target": "PcrH (WP_003113548) (Pseudomonas aeruginosa, UniProt Q9I325)", "sequence (Q9I325 1-167)": "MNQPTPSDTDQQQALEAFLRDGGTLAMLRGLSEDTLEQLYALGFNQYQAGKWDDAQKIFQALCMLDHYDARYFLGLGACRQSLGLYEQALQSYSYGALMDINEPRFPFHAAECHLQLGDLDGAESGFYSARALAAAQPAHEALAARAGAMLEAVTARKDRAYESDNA", "type": "binding", "settings": "for Kd: ITC"}, "[2]": {"settings": "range given for all 6 chaperones (PcrH, IpgC, SycD, CesD, BicA, VcrH), read-out: Kd"}}, "note": "“And” between values parts separate entries of the source, which are not always exact repeats. Equal entries are not always repeated. Where two headings read alike, the source gives them in different places.", "data": [{"smiles": "Nc1nc2c(ncn2C2OC3COP(=O)(O)OC4C(COP(=O)(O)OC3C2O)OC(n2cnc3c(=O)[nH]c(N)nc32)C4O)c(=O)[nH]1", "note": "(centres unmarked) [c-di-GMP, Cyclic di-GMP]", "values": [{"measurement": "n, c-di-GMP binding to SicAD28A", "setting": "SicA D28A; ITC binding stoichiometry n, individual replicates, Supplementary Figure 17b", "result": "1.08 and 1.02 and 0.98"}, {"measurement": "Kd", "setting": "SicA D28A; binding to SicA D28A", "result": "21000 nM and 26000 nM and 20000 nM"}, {"measurement": "n, c-di-GMP binding to SicAN70A", "setting": "SicA N70A; ITC binding stoichiometry n, individual replicates, Supplementary Figure 17e", "result": "0.95 and 1.03"}, {"measurement": "Increase in Kd, SicA N70A versus SicA", "setting": "SicA N70A; ITC, peer review file", "result": 140, "unit": "fold"}, {"measurement": "Kd", "setting": "SicA N70A; binding to SicA N70A", "result": "28000 nM and 31000 nM and 32000 nM"}, {"measurement": "n, c-di-GMP binding to IpgC", "setting": "IpgC (WP_000055835); ITC binding stoichiometry n, individual replicates, Supplementary Figure 22b", "result": "1.23 and 1.10 and 1.13"}, {"measurement": "Kd", "setting": "IpgC (WP_000055835); individual replicates, Supplementary Figure 22b, read-out: Kd, c-di-GMP binding to IpgC", "result": "200 nM and 250 nM and 220 nM"}, {"measurement": "Kd", "setting": "IpgC (WP_000055835); [2]", "result": "150 to 220", "unit": "nM"}, {"measurement": "n, c-di-GMP binding to SicAQ34A", "setting": "SicA Q34A; ITC binding stoichiometry n, individual replicates, Supplementary Figure 17c", "result": "1.05 and 1.09"}, {"measurement": "Kd", "setting": "SicA Q34A; binding to SicA Q34A", "result": "15000 nM and 12000 nM and 14000 nM"}, {"measurement": "Binding to InvF (in words)", "setting": "InvF", "result": "does not bind"}, {"measurement": "Interaction with T3SS ATPase (in words)", "setting": "[1]", "result": "no interactions"}, {"measurement": "Interaction with T3SS ATPase (in words)", "setting": "T3SS ATPase PA1697", "result": "no interactions"}, {"measurement": "n, c-di-GMP binding to VcrH", "setting": "VcrH (WP_005464462); ITC binding stoichiometry n, individual replicates, Supplementary Figure 22f", "result": "1.12 and 1.10"}, {"measurement": "Kd", "setting": "VcrH (WP_005464462); individual replicates, Supplementary Figure 22f, read-out: Kd, c-di-GMP binding to VcrH", "result": "140 nM and 160 nM"}, {"measurement": "Kd", "setting": "VcrH (WP_005464462); [2]", "result": "150 to 220", "unit": "nM"}, {"measurement": "Effect on co-IP of InvF-His6 with SicA-HA (in words)", "setting": "InvF-His6 / SicA-HA", "result": "impaired"}, {"measurement": "n, c-di-GMP binding to SycD", "setting": "SycD (WP_010891209); ITC binding stoichiometry n, individual replicates, Supplementary Figure 22c", "result": "1.15 and 1.12"}, {"measurement": "Kd", "setting": "SycD (WP_010891209); individual replicates, Supplementary Figure 22c, read-out: Kd, c-di-GMP binding to SycD", "result": "180 nM and 150 nM and 160 nM"}, {"measurement": "Kd", "setting": "SycD (WP_010891209); [2]", "result": "150 to 220", "unit": "nM"}, {"measurement": "Effect on co-IP of SipB-His6 with SicA-HA (in words)", "setting": "SipB-His6 / SicA-HA", "result": "decreased"}, {"measurement": "n, c-di-GMP binding to SicAD67A", "setting": "SicA D67A; ITC binding stoichiometry n, individual replicates, Supplementary Figure 17d", "result": "0.99 and 1.02 and 0.94"}, {"measurement": "Kd", "setting": "SicA D67A; binding to SicA D67A", "result": "33000 nM and 34000 nM and 32000 nM"}, {"measurement": "n, c-di-GMP binding to CesD", "setting": "CesD (WP_000379288); ITC binding stoichiometry n, individual replicates, Supplementary Figure 22d", "result": "1.03 and 1.09 and 1.15"}, {"measurement": "Kd", "setting": "CesD (WP_000379288); individual replicates, Supplementary Figure 22d, read-out: Kd, c-di-GMP binding to CesD", "result": "170 nM and 180 nM and 190 nM"}, {"measurement": "Kd", "setting": "CesD (WP_000379288); [2]", "result": "150 to 220", "unit": "nM"}, {"measurement": "n, c-di-GMP binding to PcrH", "setting": "PcrH (WP_003113548); ITC binding stoichiometry n, individual replicates, Supplementary Figure 22a", "result": "1.15 and 1.14 and 1.18"}, {"measurement": "Kd", "setting": "PcrH (WP_003113548); individual replicates, Supplementary Figure 22a, read-out: Kd, c-di-GMP binding to PcrH", "result": "130 nM and 190 nM"}, {"measurement": "Kd", "setting": "PcrH (WP_003113548); [2]", "result": "150 to 220", "unit": "nM"}]}]}
